Here are results for 14 compounds from the SangsterLogP compilation.

What is called logP is the decadic logarithm of the partition coefficient of the neutral form, usually between octanol and water.

On to `Cc1cc(C)cc(N)c1`, for which the logP is 2.09.
`NCc1ccccc1` came in with a logP of 1.1.
`NC(=O)NN=Cc1ccc([N+](=O)[O-])o1` displayed a logP of 0.74.
`Cc1cccc(CN)c1`: the logP was found to be 1.82.
For the compound `C=C[C@H]1CN2CC[C@H]1C[C@@H]2[C@@H](O)c1ccnc2ccc(OC)cc12`, the logP amounted to 2.77.
For the compound `CN1CCOC(c2ccccc2)c2ccccc2C1` (centres undefined), the logP came to 3.02.
Compound `CC(=O)O[C@]1(C(=O)CO)CC[C@H]2[C@@H]3CCC4=CC(=O)CC[C@]4(C)[C@H]3[C@@H](O)C[C@@]21C` gave a logP of 2.17.
The result for `Cc1ccccc1CN` reads 1.62.
As for `NS(=O)(=O)c1cc(C2(O)NC(=O)c3ccccc32)ccc1Cl` (centres undefined), the logP was 1.17.
The result for `CC(N)c1ccccc1` (centres undefined) reads 1.45; that for `Nc1ccccn1`, 0.4; that for `CCCCNc1ccc(C(=O)OCCN(C)C)cc1`, 3.46.
Compound `Cc1ccnc(C)c1` showed a logP of 1.58.
Compound `Cc1cncc(C)c1` came in with a logP of 1.74.
